Results as given in PMC5559328 (Clinical cancer research : an official journal of the …, 2017).
Counter-ions that a name gives are not always drawn. Like-named read-outs stand apart in the source and are kept apart here.

Assays:
[1] = tested on: plasma S1P and dihydroC16-ceramide; experiment: Plasma sphingolipid pharmacodynamics; type: in vivo, human
[2] = Plasma drug exposure of ABC294640; type: in vivo, human; settings: for Trough drug level: Day 28 prior to drug administration; for AUC(0-inf) / AUC(0-t): oral
SK2 = settings: ref [17], [21], cited from earlier work
tumors = settings: mouse models; ref [21]; cited from earlier work
[3] = cited from earlier work
plasma S1P = settings: at therapeutically efficacious drug doses; ref [34]; cited from earlier work
[4] = tested on: patients with advanced solid tumors; design: species or system human; settings: in vivo
[5] = 250 and 500 mg treatment groups

## O=C(NCc1ccncc1)C12CC3CC(C1)CC(c1ccc(Cl)cc1)(C3)C2 [ABC294640, 4-pyridinylmethyl-3-(4-chlorophenyl)adamantinecarboxamide, hydrochloride salt]
[1]; 250 mg (Days 1 and 28, 250 mg qd with 250 mg bid combined), n=10
  Maximum plasma S1P decrease: 51±6%
[1]; 500 mg (Days 1 and 28 combined), n=5
  Maximum plasma S1P decrease: 46±9%
[1]; 750 mg (Days 1 and 28 combined), n=2
  Maximum plasma S1P decrease: 54±14%
[1]; [5]
  Time of maximum elevation of plasma dihydroC16-ceramide: 8 to 12 h
  Time of return of plasma dihydroC16-ceramide to baseline: 24 h
[1]; patients, all doses
  Time of minimum plasma S1P level after treatment: 12 h
  Time of recovery of plasma S1P to baseline: ≤ 24 h
[2]; 250 mg bid, n=3
  Trough drug level: 0.29 ± 0.15 µg/mL
[2]; 250 mg qd, n=5
  Trough drug level: 0.20 ± 0.34 µg/mL
[2]; 500 mg bid
  Ratio AUC0-T at Day 28 to AUCINF at Day 1: 1.25
[2]; 500 mg bid, n=5
  Trough drug level: 1.82 ± 0.85 µg/mL
[2]; 750 mg bid
  Ratio AUC0-T at Day 28 to AUCINF at Day 1: 1.85
[2]; 750 mg bid, n=1
  Trough drug level: 4.48 µg/mL
[2]; human, plasma, 250 mg
  AUC(0-inf): 15200 ± 8230 ng·h/mL
  AUC(0-t): 17800 ± 15200 ng·h/mL
[2]; human, plasma, 500 mg
  AUC(0-inf): 40700 ± 28000 ng·h/mL
  AUC(0-t): 50800 ± 11300 ng·h/mL
[2]; human, plasma, po
  Tmax: 1 to 2 h
  half-life: 5 to 15 h
SK2; read-out: Ki, SK2
  Ki: 9 µM
SK2
  Ki, SK2: 3.4 µg/mL
  Mode of SK2 inhibition: competitive with respect to sphingosine
tumors
  Dose at which single-agent antitumor activity is typically apparent: ≥ 25 mg/kg/day
[3]; across several species, extensive preclinical work
  half-life: approximately 4 hours
[3]; animal data
  Half-life predicted by animal data: ~ 4.5 hours
Plasma S1P
  Reduction of plasma S1P levels: up to 50%
[4]; human
  Patients with psychiatric disorders: 2 patients
  Patients with treatment-related nervous system disorders: 6 patients
[4]; human, 28 day
  Fatigue (treatment-related adverse event): 0 n (%)
[4]; human, 28 days
  Creatinine Increase (treatment-related adverse event): 0 n (%)
  Fatigue (treatment-related adverse event): 5 (24) n (%)
  Hyperbilirubinemia (treatment-related adverse event): 0 n (%)
  Vision Change (treatment-related adverse event): 0 n (%)
[4]; human, po, 28 day cycles, continuous
  Recommended Phase II Dose: 500 mg bid
[4]
  Tolerability of dose level: not to be tolerable
